Source: patent US8889699B2, “5-fluorouracil derivative” (Delta-Fly Pharma, Inc., priority 2009, dated 2014)
Read-outs that look alike come from different tables or passages of the source.

What was measured:
[1] = system: human gastric cancer strain (SC-2); conditions: 14 days, day 15, Test Example 3
Protocol: The resulting product was stirred with a stirrer at room temperature for about 10 minutes. […] Thereafter, ultrasonic treatment was performed under ice cooling for about 5 minutes, thereby obtaining a BOF-A2 drug liquid to be used at a dose of 14 mg/kg/day, 21 mg/kg/day, or 28 mg/kg/day. • (f) Experiment: The human gastric cancer strain (SC-2) was subcutaneously transplanted into the back of a BALB/cA-nu mouse and preliminarily proliferated therein. The proliferated strain was extracted, cut into about 2 mm square pieces with scissors in physiological saline, and subcutaneously inoculated to the right axillary region of mice of the same strain, 5 to 6 weeks of age, using a transplantation needle. […] Then, drug administration was initiated from the next day. Each of the test liquids shown in (a) to (e) above was administered orally to the mice in each of the test drug groups using a sonde for oral administration at a dose of 0.1 ml per 10 g body weight once a day for 14 continuous days. In the same manner as the above, the cancer-bearing mice in the control group were subjected to oral administration of only 0.5% HPMC liquid for 14 continuous days.
The tumor volume of each mouse in each group before the initiation of the treatment, on day 3, day 5, day 8 (1 week after), day 11, and day 15 (2 weeks after), i.e., after termination of the administration, was calculated using Equation 1 below, and respective relative tumor volume (RTV) relative to the tumor volume at the time of initiation of the treatment was calculated. In relation to the antitumor effect, the average value of the tumor proliferation inhibition ratio (IR; %) was calculated from the average tumor volume of each treatment group on day 15 (after termination of the treatment) relative to that of the control group on day 15, using Equation 2. […] Along therewith, a weight change ratio was calculated from the body weight of the mice at the time of the termination of the drug administration relative to the body weight of the mice at the time of the initiation of the administration, using Equation 3. […] Tumor volume(mm^3)=(major axis)×(minor axis)^2×½ Equation 1: Tumor proliferation inhibition ratio(IR, %)=[1−(average tumor volume of treatment group)/(average tumor volume of control group)]×100 Equation 2: Average weight change ratio(%)=[(average weight on Day 15)−(average weight on Day 1)]/(average weight on Day 1)×100 Equation 3: […]
The resulting product was stirred with a stirrer at room temperature for about 10 minutes. […] The proliferated strain was extracted, cut into about 2 mm square pieces with scissors in physiological saline, and subcutaneously inoculated to the right axillary region of mice of the same strain, 5 to 6 weeks of age, using a transplantation needle. […] Then, drug administration was initiated from the next day. Each of the test liquids shown in (a) to (c) above was administered orally to the mice in each of the test drug groups using a sonde for oral administration at a dose of 0.1 ml per 10 g body weight once a day for 14 continuous days. In the same manner as the above, the cancer-bearing mice in the control group were subjected to oral administration of only 0.5% HPMC liquid for 14 continuous days.
The tumor volume of each mouse in each group before the initiation of the treatment, on day 3, day 5, day 8 (1 week after), day 11, and day 15 (2 weeks after), i.e., after termination of the administration, was calculated using Equation 1 below, and respective relative tumor volume (RTV) relative to the tumor volume at the time of initiation of the treatment was calculated. In relation to the antitumor effect, the average value of the tumor proliferation inhibition ratio (IR; %) was calculated from the average tumor volume of each treatment group on day 15 (after termination of the treatment) relative to that of the control group on day 15, using Equation 2.

DPD = biological target: T1, DPD (Rattus norvegicus, UniProt O89000); test: DPD inhibitory action in vitro (enzyme reaction, tritium-labeled 5-FU as substrate); format: biochemical
T1 construct: the obtained supernatant was used as a DPD enzyme solution or an OPRT enzyme solution; from tissue; host or cells: liver of 8-week old SD rat; 105,000 g supernatant of homogenate
T1 sequence (O89000 1-1025): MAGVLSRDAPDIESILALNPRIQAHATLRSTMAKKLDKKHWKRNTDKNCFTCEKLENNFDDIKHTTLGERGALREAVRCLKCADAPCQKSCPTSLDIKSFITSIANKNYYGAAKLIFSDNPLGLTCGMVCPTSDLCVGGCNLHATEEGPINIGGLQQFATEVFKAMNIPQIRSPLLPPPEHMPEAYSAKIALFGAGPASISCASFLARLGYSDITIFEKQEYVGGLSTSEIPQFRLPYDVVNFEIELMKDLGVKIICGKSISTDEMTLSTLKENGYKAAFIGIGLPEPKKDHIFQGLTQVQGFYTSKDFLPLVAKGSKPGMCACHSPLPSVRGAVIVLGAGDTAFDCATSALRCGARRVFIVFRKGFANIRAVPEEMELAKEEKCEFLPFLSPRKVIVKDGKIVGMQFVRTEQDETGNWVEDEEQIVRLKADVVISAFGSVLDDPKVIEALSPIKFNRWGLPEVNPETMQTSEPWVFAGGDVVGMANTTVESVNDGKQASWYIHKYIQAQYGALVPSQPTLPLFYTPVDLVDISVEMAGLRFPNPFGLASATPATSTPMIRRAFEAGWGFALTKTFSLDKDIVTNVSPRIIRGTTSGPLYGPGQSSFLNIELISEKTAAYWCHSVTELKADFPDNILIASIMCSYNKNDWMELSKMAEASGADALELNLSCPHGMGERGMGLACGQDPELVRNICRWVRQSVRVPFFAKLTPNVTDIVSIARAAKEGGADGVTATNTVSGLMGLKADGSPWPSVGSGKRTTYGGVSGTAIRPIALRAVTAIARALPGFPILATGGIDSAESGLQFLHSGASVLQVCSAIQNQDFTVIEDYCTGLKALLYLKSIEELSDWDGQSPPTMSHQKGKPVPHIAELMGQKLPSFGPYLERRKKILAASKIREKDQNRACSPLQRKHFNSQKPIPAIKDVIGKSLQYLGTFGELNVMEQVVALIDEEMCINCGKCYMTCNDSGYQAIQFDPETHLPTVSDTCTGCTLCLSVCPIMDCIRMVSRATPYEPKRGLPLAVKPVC
Protocol: The resulting product was diluted to concentrations of 1 mM, 100 μM, 10 μM, and 1 μM with a 10 mM potassium phosphate buffer solution (pH 6.0), thereby obtaining Test Liquids 1. The obtained Test Liquids 1 were separately added to the enzyme reaction solution described below to give final concentrations of 200 μM, 20 μM, 2 μM, and 0.2 μM. • (b) Test liquid preparation (2): As a DPD inhibitor, 5-chloro-2,4-dihydroxypyridine (CDHP; gimeracil) was dissolved to a concentration of 10 mM in a 10 mM potassium phosphate buffer solution (pH 6.0). The resulting product was diluted to concentrations of 1 mM, 100 μM, 10 μM, and 1 μM, thereby obtaining Test Liquids 2. The obtained Test Liquids 2 were separately added to the enzyme reaction solution to give final concentrations of 200 μM, 20 μM, 2 μM, and 0.2 μM. • (c) Test liquid preparation (3): As an OPRT inhibitor, citrazinic acid (Citra. A.) was dissolved to a concentration of 10 mM in 20 mM trishydroxyaminomethane-hydrochloric buffer solution (pH 8.0). Thereafter, the resulting product was diluted to concentrations of 1 mM, 100 μM, and 10 μM with a 10 mM potassium phosphate buffer solution, thereby obtaining Test Liquids (3). The obtained Test Liquids 3 were separately added to the enzyme reaction solution to give final concentrations of 200 μM, 20 μM, and 2 μM. • (d) Preparation of enzyme solution: The liver of an 8-week old SD rat was used as a DPD enzyme source, while human tumor cells that had been transplanted into a nude mouse and proliferated therein were used as an OPRT enzyme source. Specifically, immediately after a rat liver or successively-transplanted human tumor cells were extracted, a 50-mM tris-hydrochloric acid buffer solution (pH 8.0) containing 0.25 M saccharose, 5 mM magnesium chloride, and 1 mM dithreitol was added thereto to a concentration of 25% (w/v) and homogenized. Thereafter, ultracentrifugation was performed at 105,000 g for 60 minutes, and the obtained supernatant was used as a DPD enzyme solution or an OPRT enzyme solution. • (e) Enzyme reaction: A DPD enzyme reaction was carried out in accordance with the method of Tatsumi et al. (Gann, 78: 748-755 (1987)) using 5-FU labeled with tritium as a substrate. An OPRT enzyme reaction was carried out in accordance with the method of Shirasaka et al. (Cancer Res., 53: 4004-4009 (1993)) using 5-FU labeled with tritium as a substrate. Then, the activity of a control group (with no test compound) and test compound groups was measured. The percent inhibition of the test compound relative to DPD or OPRT was calculated using the following formula: [1-(the enzyme activity with the test compound/the enzyme activity of the control group)]×100(%).
The resulting product was diluted to concentrations of 1 mM, 100 μM, 10 μM, and 1 μM with a 10 mM potassium phosphate buffer solution (pH 6.0), thereby obtaining Test Liquids 1. The obtained Test Liquids 1 were separately added to the enzyme reaction solution described below to give final concentrations of 200 μM, 20 μM, 2 μM, and 0.2 μM. • (b) Preparation of enzyme solution: The liver of an 8-week old SD rat was used as a DPD enzyme source, while human tumor cells that had been transplanted into a nude mouse and proliferated therein were used as an OPRT enzyme source. Specifically, immediately after a rat liver or successively-transplanted human tumor cells were extracted, a 50-mM tris-hydrochloric acid buffer solution (pH 8.0) containing 0.25 M saccharose, 5 mM magnesium chloride, and 1 mM dithreitol was added thereto to a concentration of 25% (w/v) and homogenized. Thereafter, ultracentrifugation was performed at 105,000 g for 60 minutes, and the obtained supernatant was used as a DPD enzyme solution or an OPRT enzyme solution. • (c) Enzyme reaction: A DPD enzyme reaction was carried out in accordance with the method of Tatsumi et al. (Gann, 78: 748-755 (1987)) using 5-FU labeled with tritium as a substrate. […]

CCOCn1cc(F)c(=O)n(C(=O)c2cccc(C(=O)Oc3nc(OC(=O)c4ccccc4)ccc3C#N)c2)c1=O [BOF-A2, reference compound]
Average weight change (%) ([1]; 14 mg/kg/day oral): 3.16%
Tumor proliferation inhibition ratio (%) ([1]; 14 mg/kg/day oral): 51.0%
Average weight change (%) ([1]; 21 mg/kg/day oral): −7.48%
Tumor proliferation inhibition ratio (%) ([1]; 21 mg/kg/day oral): 70.9%
Average weight change (%) ([1]; 28 mg/kg/day oral): −20.58%
Tumor proliferation inhibition ratio (%) ([1]; 28 mg/kg/day oral): 72.4%

Oc1cc(O)c(Cl)cn1 [CDHP, 5-chloro-2,4-dihydroxypyridine, reference compound]
inhibition at 0.2 µM (DPD; 0.2 μM, Table 2, read-out: DPD Inhibition (%)): 44.8%
inhibition at 2 µM (DPD; 2 μM, Table 2, read-out: DPD Inhibition (%)): 85.1%
DPD Inhibitory Activity: Activity (DPD; Conc. 0.2 μM, Table 1): 0.597 nmol/mL/min
inhibition at 0.2 µM (DPD; Conc. 0.2 μM, Table 1, read-out: DPD Inhibitory Activity: Inhibition): 40.8%
DPD Inhibitory Activity: Activity (DPD; Conc. 2 μM, Table 1): 0.195 nmol/mL/min
inhibition at 2 µM (DPD; Conc. 2 μM, Table 1, read-out: DPD Inhibitory Activity: Inhibition): 80.7%
DPD Inhibitory Activity: Activity (DPD; Conc. 20 μM, Table 1): 0.074 nmol/mL/min
inhibition at 20 µM (DPD; Conc. 20 μM, Table 1): 92.7%
DPD Inhibitory Activity: Activity (DPD; Conc. 200 μM, Table 1): 0.106 nmol/mL/min
inhibition at 200 µM (DPD; Conc. 200 μM, Table 1): 89.5%

CCOCn1cc(F)c(=O)n(C(=O)c2cccc(C(=O)Oc3cc(O)c(Cl)cn3)c2)c1=O [Compound 8a, 3-{3-[4-hydroxy-5-chloro-2-pyridyloxycarbonyl]benzoyl}-1-ethoxymethyl-5-fluorouracil]
Average weight change (%) ([1]; 11.5 mg/kg/day oral): 0.34%
Tumor proliferation inhibition ratio (%) ([1]; 11.5 mg/kg/day oral): 52.8%
Average weight change (%) ([1]; 17.3 mg/kg/day oral): 2.32%
Tumor proliferation inhibition ratio (%) ([1]; 17.3 mg/kg/day oral): 58.1%
Average weight change (%) ([1]; 23.0 mg/kg/day oral): −18.11%
Tumor proliferation inhibition ratio (%) ([1]; 23.0 mg/kg/day oral): 77.7%
